Experimental data published in patent publication US9273330B2, “Butanol tolerance in microorganisms” (Butamax Advanced Biofuels LLC, priority 2012, dated 2016).

What was measured:
[1] = system: population of cells that had survived 24 hour exposure to 2.5% isobutanol during Selection IV; assay: Serial passage in SEGU culture medium with glucose and isobutanol; format: cell-based, Saccharomyces cerevisiae; conditions: 30° C., after 48 hours (1:2 dilution after 24 hours)
Method: A population of cells that had been evolved through four isobutanol exposures (Selection IV, Example 2) was repeatedly sub-cultured in growth medium supplemented with glucose and isobutanol to select for cells that were better able to utilize glucose in the presence of isobutanol.
A population of cells that had survived 24 hour exposure to 2.5% isobutanol during Selection IV (see Table 7) was diluted into SEGU culture medium (SEU with 0.2% glucose) to OD600=0.8. The diluted cell suspension was divided into 1.5 ml cultures, dispensed into 2 ml sterile screw cap tubes and supplemented with various concentrations of isobutanol. The cultures were incubated at 30° C. on a roller drum. After 24 hours, the cultures were diluted 1:2 with the SEGU culture medium comprising the same amount of isobutanol as the previous culture. […] The 0.5% culture was serially sub-cultured 10 times by diluting the culture to approximately OD600=0.5 in SEGU culture medium containing 0.5% isobutanol and incubating the diluted culture at 30° C. for 24 to 48 hours before diluting the culture again.

isobutanologen PNY1530 = assay: Isobutanol selection: viable cell count after 24 hour exposure of high-density PNY1530 cultures; format: cell-based, Saccharomyces cerevisiae
Method: Cultures of PNY1530 were subjected to five rounds of selection in increasing concentrations of isobutanol. The first round of isobutanol selection was initiated by growing PNY1530 to OD600=1.8 in 100 ml of SEU culture medium (yeast nitrogen base supplemented with Sigma yeast synthetic dropout medium without uracil (Sigma Y1501) and with 0.2% ethanol). The cells were centrifuged, resuspended in 100 ml of fresh culture medium and grown for several hours to approximately 3 OD600 units. The culture was centrifuged and resuspended at OD600=100 (approximately 5×10^8 cfu/ml) in 3 ml of culture medium without ethanol. A small sample was removed from the cell suspension for a viable cell count, and the remaining cell suspension was divided into three cultures containing 1.5% isobutanol, 1.7% isobutanol or 2.0% isobutanol. Each culture was incubated at 30° C. on a roller drum for 24 hours. The cultures were then centrifuged, and the cell pellets were each resuspended in 1 ml of culture medium without isobutanol or ethanol. Small samples were removed from the cultures for viable cell counts, and the remaining portion of each cell suspension (approximately 975 μl) was inoculated into 10 ml of SEU culture medium. The cultures were incubated at 30° C. with shaking. In general, each subsequent round of isobutanol selection was initiated with cells that had survived the highest level of isobutanol selection in the previous round of exposure.
Increased numbers of survivors were observed following each exposure to isobutanol (Table 7). For example, only 1.8% of the cells survived 24 hour exposure to 2.0% isobutanol during Selection I whereas 100% of the population survived 24 hour exposure to 2.0% isobutanol during Selection IV.

SMILES: CC(C)CO [Isobutanol, 2-methyl-1-propanol]
- highest concentration that permitted growth [1]: 0.5%
- Percent Survival (isobutanologen PNY1530; 1.5% isobutanol, Selection I): 73
- Percent Survival (isobutanologen PNY1530; 1.7% isobutanol, Selection I): 53
- Percent Survival (isobutanologen PNY1530; 2.0% isobutanol, Selection I): 1.8 →
- Percent Survival (isobutanologen PNY1530; 2.0% isobutanol, Selection I, listed as isobutanol): 1.8
- Percent Survival (isobutanologen PNY1530; 2.0% isobutanol, Selection II): 12 →
- Percent Survival (isobutanologen PNY1530; 2.0% isobutanol, Selection III): 21
- Percent Survival (isobutanologen PNY1530; 2.0% isobutanol, Selection IV): 100
- Percent Survival (isobutanologen PNY1530; 2.2% isobutanol, Selection III): 0.8
- Percent Survival (isobutanologen PNY1530; 2.2% isobutanol, Selection IV): 45
- Percent Survival (isobutanologen PNY1530; 2.5% isobutanol, Selection II): 0.0003
- Percent Survival (isobutanologen PNY1530; 2.5% isobutanol, Selection III): 0.0006 →
- Percent Survival (isobutanologen PNY1530; 2.5% isobutanol, Selection IV): 14 →
- Percent Survival (isobutanologen PNY1530; 2.5% isobutanol, Selection V): 4.5
- Percent Survival (isobutanologen PNY1530; 2.7% isobutanol, Selection II): no survivors were detected
- Percent Survival (isobutanologen PNY1530; 2.7% isobutanol, Selection V): 0.004
